Assay results reported in patent publication EP0311107A2, “Anti-HIV active 3'-fluoro-purine-2',3'-dideoxyribosides” (priority 1987, dated 1989).
pEC50, pIC50: −log10 of the molar value. Like-named read-outs stand apart in the source and are kept apart here. Marks after values point to notes of the source that are not given here.

Columns and labels:
HIV (HTLV-IIIB) [1] = assay: HIV-induced cytopathogenicity in MT4 cells (viable cell count by trypan blue exclusion after 5 days); type: cell-based; conditions: for pEC50: Human immunodeficiency virus 1, IIIB; for HIV-induced cytopathogenicity in MT4 cells S.I.: selectivity index, ratio of 50% cytotoxic dose to 50% antivirally effective dose, 7200 min
Method: (§1) For the determination of the cytopathic effect of HIV in human T-lymphocyte MT4 cells, MT4 cells, subcultured one day before the start of the experiment, were adjusted at 5 x 10⁵ cells/ml and infected with HIV (HTLV-IIIB) at 100 CCID₅₀/ml. Then, 100 µl of the infected cell suspension was brought into wells of a microtiter tray containing 100 µl of various dilutions of the test compounds. After 5 days incubation at 37°C, the number of viable cells was recorded microscopically in a hematocytometer by trypan blue exclusion.
(§2) A series of novel 2,6-diaminopurine and guanine 2′,3′-dideoxynucleoside analogues in which the 2′,3′-dideoxyribose moiety is substituted by a 3′-fluoro group, or replaced by arabinose or 2′-deoxyxylose were evaluated for their effect on the transformation of C3H mouse embryo cells by Moloney murine sarcoma virus (MSV) (Table 1) and the cytopathogenicity induced by HIV in human T4 lymphocyte MT4 cells (Table 1, Fig. 2).

in vitro [2] = type: cell-based; conditions: human, mt4 cells
Method: as §1
Its anti-HIV activity is also higher than that found for its corresponding 2,6-diaminopurine derivative FddDAPR.

[3] = system: Moloney murine sarcoma virus (MSV); assay: MSV-induced C3H cell transformation; type: cell-based; conditions: for pEC50: Moloney murine sarcoma virus, C3H; for MSV-induced C3H cell transformation S.I.: selectivity index, ratio of 50% cytotoxic dose to 50% antivirally effective dose
Method: For transformation of C3H mouse embryo cells by Molo ney murine sarcoma virus (MSV), confluent monolayers of C3H cells in 1 ml wells of Tissue Culture Cluster plates were infected wiht 150 foci-forming units of MSV during 90 min, whereafter medium was replaced by 1 ml fresh culture medium containing different concentrations of test compound. After 6-7 days incubation at 37°C, transformation of the cell cultures was monitored microscopically.
as §2

in vitro [4] = type: cell-based; conditions: mouse, c3h cells
B-lymphoblast Raji = assay: Cytostatic effect against Raji cells; type: cell-based; conditions: Homo sapiens, read-out: Inhibitory dose-50 Raji
Method: (§3) The cultivation of Raji, Molt/4F, CEM, H9, HUT-78 and MT4 cells has been described in Balzarini, J, et al, Biochem. Biophys. Res. Commun. 136:64-71 (1986b) and Pauwels, R. et al, J. Virol. Methods, 16:171-185 (1987).
(§4) The cytostatic effects of the compounds listed in Table 1 were examined against several human B-lymphoblast Raji, T-lymphoblast Molt/4F and T-lymphocyte CEM, H9 and MT4 cell lines (Table 2). […] In no case is the ID₅₀ of the compounds for tumor cell proliferation lower than 60 µM. FddGuo is slightly more cytostatic than FddDAPR (ID₅₀ : 190 to 228 µM, and 233 to >1000 µM, respectively). XylodDAPR and araDAPR are devoid of any anti-cellular activity, even when tested at a concentration as high as 1000 µM.

T-lymphoblast Molt/4F = assay: Cytostatic effect against Molt/4F cells; type: cell-based; conditions: Homo sapiens, read-out: Inhibitory dose-50 Molt/4F
Description: The cultivation of Raji, Molt/4F, CEM, H9, HUT-78 and MT4 cells has been described in Balzarini, J, et al, Biochem. Biophys. Res. Commun.
The cytostatic effects of the compounds listed in Table 1 were examined against several human B-lymphoblast Raji, T-lymphoblast Molt/4F and T-lymphocyte CEM, H9 and MT4 cell lines (Table 2).

T-lymphocyte CEM [5] = assay: Cytostatic effect against CEM cells; type: cell-based; conditions: Homo sapiens, CCRF-CEM, read-out: Inhibitory dose-50 CEM
Method: as §3, §4

H9 = assay: Cytostatic effect against H9 cells; type: cell-based; conditions: Homo sapiens, read-out: Inhibitory dose-50 H9
Method: as §3, §4

MT4 [6] = assay: Cytostatic effect against MT4 cells; type: cell-based; conditions: Homo sapiens, read-out: Inhibitory dose-50 MT4
Method: as §3, §4

[7] = target: T1, beef intestine adenosine deaminase (ADA) (Bos taurus, UniProt P56658); assay: Substrate kinetics for deamination by adenosine deaminase; type: biochemical
T1 construct: Kinetic properties of beef intestine adenosine deaminase for 2,6-diaminopurine 2′,3′-dideoxynucleoside analogues; purchased Boehringer Mannheim, Mannheim, West Germany; host or cells: beef intestine (tissue-derived enzyme)
T1 sequence (P56658 1-363): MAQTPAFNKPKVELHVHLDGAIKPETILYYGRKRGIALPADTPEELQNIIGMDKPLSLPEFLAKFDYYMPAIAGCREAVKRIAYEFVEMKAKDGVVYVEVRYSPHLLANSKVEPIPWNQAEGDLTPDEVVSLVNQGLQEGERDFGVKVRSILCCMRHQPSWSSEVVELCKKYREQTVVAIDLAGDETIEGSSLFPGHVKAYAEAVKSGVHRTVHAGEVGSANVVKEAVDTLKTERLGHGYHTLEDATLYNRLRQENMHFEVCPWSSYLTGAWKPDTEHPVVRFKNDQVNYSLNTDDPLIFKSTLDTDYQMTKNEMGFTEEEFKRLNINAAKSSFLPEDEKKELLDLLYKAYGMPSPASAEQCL
Description: All four ddDAPR analogues were examined for their susceptibility to deamination by beef intestine adenosine de aminase (ADA).

[8] = target: T1, beef intestine adenosine deaminase (ADA); conditions: data taken from Balzarini, J. et al (1987c); cited from earlier work
HIV (HTLV-IIIB) [9] = conditions: earlier report, Balzarini et al (1987b); read-out: 50% effective dose (ED₅₀), inhibition of HIV-replication in MT4 cells; cited from earlier work
T-lymphocyte CEM [10] = assay: Cytostatic effect against CEM cells; type: cell-based; conditions: Homo sapiens, read-out: Inhibitory dose-50 CEM
MT4 [11] = assay: Cytostatic effect against MT4 cells; type: cell-based; conditions: Homo sapiens, read-out: Inhibitory dose-50 MT4; remark: listed apart in the source
[12] = MT4, 120 h, MT4 cells, 5 days at 37°C, read-out: HIV-induced cytopathogenicity in MT4 cells ED₅₀
[13] = C3H cells, 6-7 days at 37°C, read-out: MSV-induced C3H cell transformation ED₅₀
[14] = presence of DCF (10 µM preincubation)

SMILES | pEC50 (HIV (HTLV-IIIB) [1]; [12]) | CC50 at 120 h (in vitro [2]) | pEC50 [3, 13] | CC50 (in vitro [4]) | pIC50 (B-lymphoblast Raji) | pIC50 (T-lymphoblast Molt/4F; Molt/4F) | pIC50 (T-lymphocyte CEM [5]) | pIC50 (H9) | pIC50 (MT4 [6]) | Vmax [8] | HIV-induced cytopathogenicity in MT4 cells S.I. (HIV (HTLV-IIIB) [1]) | MSV-induced C3H cell transformation S.I. [3] | also measured
Nc1nc(N)c2ncn([C@@H]3O[C@H](CO)[C@@H](O)[C@@H]3O)c2n1 [araDAPR, 9-β-D-arabinofuranosyl 2,6-diaminopurine] | < 3.90 | > 625 µM | < 3.40 | > 400 µM | < 3.00 | < 3.00 | < 3.00 | < 3.00 | < 3.00 |  |  |  | anti-HIV activity (HIV (HTLV-IIIB) [1]; HIV-induced cytopathogenicity in MT4 cells, result in words): devoid of any anti-HIV activity; Km [7]: 83 µM; Vmax [7]: 5.9 µmole/mg proten/min
Nc1ncnc2c1ncn2[C@H]1CC[C@@H](CO)O1 [ddAdo, 2′,3′-dideoxyadenosine] |  |  |  |  |  |  |  |  |  | 262^a µmole/mg proten/min |  |  | 
Nc1nc(N)c2ncn([C@H]3CC[C@@H](CO)O3)c2n1 [ddDAPR, 2,6-Diamino-9-(2,3-dideoxy-β-D-glycero-pentofuranosyl)purine] | 5.42 | 404 µM | 4.72 | ≥ 200 µM | 3.49 |  | 3.90 | 3.33 | 3.19 | 8.2^a µmole/mg proten/min | 106 | ≧ 11 | pEC50 (HIV (HTLV-IIIB) [1]; MT4, presence of 10 µM DCF (2′-deoxycoformycin), read-out: Effective dose-50 HIV-induced cytopathogenicity in MT4 cells): 4.89; pEC50 (HIV (HTLV-IIIB) [1]; MT4, without DCF (Table 3), read-out: Effective dose-50 HIV-induced cytopathogenicity in MT4 cells): 5.42; pEC50 ([3]; presence of 10 µM DCF (2′-deoxycoformycin), read-out: Effective dose-50 MSV-induced C3H cell transformation): 4.08; pEC50 ([3]; without DCF (Table 3), read-out: Effective dose-50 MSV-induced C3H cell transformation): 4.64; pIC50 (T-lymphoblast Molt/4F; [14]): < 3.00; pIC50 (T-lymphoblast Molt/4F; without DCF (Table 4)): 3.66; Vmax relative to that observed for Ado [7]: 3%; pEC50 (HIV (HTLV-IIIB) [9]): 5.44 to 5.60; pIC50 (T-lymphocyte CEM [10]; [14]): < 3.00; pIC50 (T-lymphocyte CEM [10]; without DCF (Table 4)): 3.89; pIC50 (MT4 [11]; MT4, presence of DCF (10 µM preincubation)): < 3.00; pIC50 (MT4 [11]; MT4, without DCF (Table 4)): < 3.00; Km [8]: 29 µM
Nc1nc2c(ncn2[C@H]2CC[C@@H](CO)O2)c(=O)[nH]1 [ddGuo, 2′,3′-Dideoxyguanosine] | 5.12 | 486 µM | 4.14 | > 400 µM | 3.04 | 3.42 | 3.85 | 3.27 | 3.03 |  | 64 | > 5.5 | 
